Patent EP1006108A1, “3-Hydroxy-2(1H)-pyridinone or 3-hydroxy-4(1H)-pyridinone derivatives useful as reactive oxygen species (ROS) scavengers” (Cerebrus Pharmaceuticals Limited, priority 1998, dated 2000)
Structures can show the parent of a compound that is named as a salt.

Assays:
[1] = system: lipid peroxidation in rat brain homogenates; experiment: Lipid peroxidation assay (ascorbic acid induced, MDA/TBA readout); type: biochemical; conditions: concentration inhibiting lipid peroxidation by 50%; rat cortex preparation, 500-µM L-ascorbic acid, 37 °C for 30 min
Description: Lipid peroxidation in rat brain homogenates is a general procedure used to measure the antioxidant capacity of molecules in a biological environment (Das N.P. and Ratty A.K., Biochem. Med. Metab. Biol. 1987, 37, 256-264).
Rat cortex was homogenised in 20 vols. of ice cold 0.32-M sucrose and centrifuged at 1,000 g for 10 min. The pellet was discarded whilst the resulting supernatant was centrifuged at 15,000 g for 20 min at 4 °C to yield p2 pellets. The pellet was re-suspended in ice-cold 50.0-mM phosphate buffer and centrifuged at 30,000 g for 20 min at 4 °C. The pellet was re-suspended in 30 vols, of 50.0-mM phosphate buffer and used immediately in the assay.
Assays contained 500-µM L-ascorbic acid to induce lipid peroxidation, plus various concentrations of test compound, with the tissue preparation in a total volume of 500 µL. This was incubated at 37 °C for 30 min. Lipid peroxidation was measured by adding to the reaction mixture, 300 µL 40 % (w/v) trichloroacetic acid, 150 µL 5.0-M HCl and 300 µL 2 % (w/v) 2-thiobarbituric acid (TBA). Samples were then heated at 90 °C in a water bath for 15 min, and centrifuged at 15,000 g for 10 min. The pink colour of the supernatant was assessed spectrophotometrically at a wavelength of 532 nm. The amount of malondialdehyde (MDA) in the samples was calculated using a standard curve prepared with malondialdehyde tetrabutylammonium salt (Das, N.P. and Ratty, A.K. Biochem. Med. Metab. Biol. 1987, 37, 256-264).
The IC50 values show the concentration of test compound required to inhibit the lipid peroxidation by 50%.

[2] = system: cerebellar granule cell (CGC) cultures; experiment: Iodoacetate (IAA) induced cell death, MTT-reductase readout; type: cell-based; conditions: Cell Toxicity, 30-µM IAA for 30 min plus 10-µM MK-801, then test compound, 24 hour incubation
Description: After 6-8 days in culture, cerebellar granule cell (CGC) cultures in 96-well plates (250,000 cells per well) were prepared for hypoglycaemia. Iodoacetate (IAA) was made up in a balanced salt solution (BSS) (NaCI, 154.0-mM; KCl, 5.6-mM; MgCl2, 1.0-mM; CaCl2, 2.5-mM; N-[2-hydroxyethyl]piperazine-N'-[2-ethanesulfonic acid] (HEPES), 10.0-mM; D-glucose, 5.6-mM; pH 7.4) and any neuroprotective agents were made up in pre-warmed tissue culture media and allowed to equilibrate in a controlled environment (5 % CO2, 95 % air). The assay was initiated by aspiration of the maintenance media, which was replaced by either BSS (control) or 30-µM IAA in BSS, both solutions containing 10-µM of the NMDA receptor antagonist MK-801. The exposure to IAA was for 30 min only at 37 °C, after which time the BSS was aspirated and replaced with fresh, pre-equilibriated maintenance media containing various concentrations of test compound. All conditions were performed at least in duplicate in each 96 well plate. The final volume for each well was always 200 µL. Following a 24 hour incubation, visual inspection of the cells was followed by quantification of neuronal cell death by measuring 3-[4,5-dimethylthiazol-2-yl]-2,5-diphenyltetrazolium bromide (MTT)-reductase activity as described previously (Malcolm et al., J. Neurochem. 1996, 66, 2350-2360).

[3] = system: oxidation of DCFH to DCF; experiment: Measurement of intracellular oxidative stress (DCFH-DA fluorescence); type: cell-based; conditions: 0.5 h, concentration blocking oxidation of DCFH to DCF by 50%, 30.0-µM IAA, 30 minutes, read from Figure 1
Description: IAA-stimulated fluorescence values are given as a function of concentration of the test compound.
Intracellular oxidative stress was measured using the oxidant-sensitive fluorescent dye 2',7'-dichlorodihydrofluorescein diacetate (DCFH-DA) (Molecular Probes). The non-fluorescent DCFH-DA readily crosses cell membranes whereupon it is trapped within the cytoplasm by deacetylation to the non-membrane permeable form dichlorodihydrofluorescein (DCFH). Upon oxidation, DCFH yields the highly fluorescent product dichlorofluorescein (DCF). Briefly, growth medium was aspirated from cultures and replaced with 200 µl BSS (plus 10.0-µM MK-801) or BSS (plus 10.0-µM MK-801) containing 30.0-µM IAA alone or in combination with various concentrations of antioxidants. After incubation at 37 °C for 30 minutes, cultures were aspirated once more and 10.0-µM DCFH-DA (200 µL) added to all wells. After a further 20 minute incubation at 37 °C, fluorescence was measured in a Cytofluor II fluorescent plate reader (λex=485nm; λem=530nm). Background fluorescence values from wells treated with 2 % Triton X-100 were subtracted from both basal and stimulated fluorescence values and the effects of test compounds expressed as a percent inhibition of the IAA-stimulated fluorescence increase over basal.
The EC50 value gives the effective concentration of test compound required to block the oxidation of DCFH to DCF by 50%. […]

Row | IC50 [1] [µM] | EC50 [3] [µM] | Compound | EC50 [2] [µM]
1 | 1.5 |  | 2-(1,4-Dihydro-3-hydroxy-2-methyl-4-oxo-1-pyridinyl)ethyl 3,4-dihydro-6-hydroxy-2,5,7,8-tetramethyl-2H-benzopyran-2-carboxylate [Example 3] | 1.8
2 | 0.2 |  | Cc1c(O)c(=O)ccn1CCC(=O)NCCCc1cc(C(C)(C)C)c(O)c(C(C)(C)C)c1 [Example 1, 3-(1,4-Dihydro-3-hydroxy-2-methyl-4-oxo-1-pyridinyl)-N-(3-(3,5-di-tert-butyl-4-hydroxyphenyl)propyl)propanamide] | 0.3
3 | 0.2 |  | Cc1c(O)c(=O)ccn1CCNCc1cc(C(C)(C)C)c(O)c(C(C)(C)C)c1 [Example 2, 1-[2-(3,5-Di-tert-butyl-4-hydroxybenzylamino)ethyl]-3-hydroxy-2-methyl-4(1H)-pyridinone dihydrochloride] | 3.3
4 | 0.8 |  | Cc1c(C)c2c(c(C)c1O)CCC(C)(CNC(=O)CCn1ccc(=O)c(O)c1C)O2 (stereo not drawn) [Example 5, 3-(1,4-Dihydro-3-hydroxy-2-methyl-4-oxo-1-pyridinyl)-N-(3,4-dihydro-6-hydroxy-2,5,7,8-tetramethyl-2H-benzopyran-2-yl)methylpropanamide] | 2.6
5 | 0.2 |  | Cc1c(C)c2c(c(C)c1O)CCC(C)(COCCn1ccc(=O)c(O)c1C)O2 (stereo not drawn) [Example 6] | ~3
6 | 0.1 |  | Cc1c(C)c2c(c(C)c1O)CCC(C)(CNCCCCn1ccc(=O)c(O)c1C)O2 (stereo not drawn) [Example 7, 1-[4-(3,4-Dihydro-6-hydroxy-2,5,7,8-tetramethyl-2H-benzopyran-2-yl)methylamino)butyl]-3-hydroxy-2-methyl-4(1H)-pyridinone dihydrochloride] | 0.6
7 | 0.5 |  | Cc1c(C)c2c(c(C)c1O)CC(CC(=O)NCCn1ccc(=O)c(O)c1C)O2 (stereo not drawn) [Example 8, N-(2-(1,4-Dihydro-3-hydroxy-2-methyl-4-oxo-1-pyridinyl)ethyl)-2,3-dihydro-5-hydroxy-4,6,7-trimethylbenzofuran-2-acetamide] | 3.8
8 | 0.4 |  | Cc1c(C)c2c(c(C)c1O)CC(CC(=O)OCCn1ccc(=O)c(O)c1C)O2 (stereo not drawn) [Example 9, 2-(1,4-Dihydro-3-hydroxy-2-methyl-4-oxo-1-pyridinyl)ethyl 2,3-dihydro-5-hydroxy-4,6,7-trimethylbenzofuran-2-acetate] | 1.6
9 | 0.2 | 0.8 | Cc1c(C)c2c(c(C)c1O)CC(CCOC(=O)CCn1ccc(=O)c(O)c1C)O2 (stereo not drawn) [Example 10, 2-(2,3-Dihydro-5-hydroxy-4,6,7-trimethylbenzofuran-2-yl)ethyl 3-(1,4-dihydro-3-hydroxy-2-methyl-4-oxo-1-pyridinyl)propanoate] | ~5.3
10 | 1 |  | N-(2-(1,4-Dihydro-3-hydroxy-2-methyl-4-oxo-1-pyridinyl)ethyl)-3,4-dihydro-6-hydroxy-2,5,7,8-tetramethyl-2H-benzopyran-2-carboxamide [Example 4] | 1.8
